Source: BindingDB's records for doi:10.1016/j.bmcl.2004.01.051 (Pierre and Marie Curie University, 2004)

Tests used:
[1] = biological target: Cyclopropane-fatty-acyl-phospholipid synthase (Escherichia coli) (UniProt P0A9H7); test: Inhibition constant against Escherichia coli cyclopropane fatty acid synthase
[2] = biological target: Cyclopropane-fatty-acyl-phospholipid synthase (Escherichia coli) (UniProt P0A9H7); test: as above; remark: listed apart in the source

Chain of Cyclopropane-fatty-acyl-phospholipid synthase (Escherichia coli) (P0A9H7 whole entry, looked up): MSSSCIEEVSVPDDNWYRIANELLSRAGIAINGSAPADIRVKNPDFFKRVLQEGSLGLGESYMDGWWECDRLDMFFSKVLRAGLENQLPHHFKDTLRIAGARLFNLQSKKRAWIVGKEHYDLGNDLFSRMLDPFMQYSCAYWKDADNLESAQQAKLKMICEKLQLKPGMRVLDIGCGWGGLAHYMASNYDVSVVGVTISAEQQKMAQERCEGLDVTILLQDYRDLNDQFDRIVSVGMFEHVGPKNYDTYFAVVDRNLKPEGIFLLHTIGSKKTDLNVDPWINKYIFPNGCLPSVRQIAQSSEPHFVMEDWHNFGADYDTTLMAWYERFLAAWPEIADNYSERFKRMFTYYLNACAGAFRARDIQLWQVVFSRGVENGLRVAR

| Structure (SMILES) | Ki [1] | Ki [2] |
| --- | --- | --- |
| Nc1ncnc2c1ncn2[C@@H]1O[C@H](CS(=O)(=O)CC[C@H](N)C(=O)O)[C@@H](O)[C@H]1O [2-Amino-4-[(2S,3S,4R,5R)-5-(6-amino-purin-9-yl)-3,4-dihydroxy-tetrahydro-furan-2-ylmethanesulfonyl]-butyric acid] | 100 µM |  |
| CS(=O)(=O)C[C@H]1O[C@@H](n2cnc3c(N)ncnc32)[C@H](O)[C@@H]1O [(2R,3R,4S,5S)-2-(6-Amino-purin-9-yl)-5-methanesulfonylmethyl-tetrahydro-furan-3,4-diol] | 220 µM |  |
| C[S+]([O-])C[C@H]1O[C@@H](n2cnc3c(N)ncnc32)[C@H](O)[C@@H]1O (stereo partly drawn) [(2R,3R,4S,5S)-2-(6-Amino-purin-9-yl)-5-methanesulfinylmethyl-tetrahydro-furan-3,4-diol] | 500 µM |  |

Continued by falling Ki [1], values first:

| Ki [1] | Ki [2] | Structure (SMILES) |
| --- | --- | --- |
| 2500 µM |  | C[S+](C)C[C@H]1O[C@@H](n2cnc3c(N)ncnc32)[C@H](O)[C@@H]1O |
| 1500 µM |  | CSC[C@H]1O[C@@H](n2cnc3c(N)ncnc32)[C@H](O)[C@@H]1O [(2R,3R,4S,5S)-2-(6-aminopurin-9-yl)-5-(methylsulfanylmethyl)oxolane-3,4-diol] |
| 150 µM |  | Nc1ncnc2c1ncn2[C@@H]1O[C@H](CSCC[C@H](N)C(=O)O)[C@@H](O)[C@H]1O [AdoHcy] |
| 50 µM | 30 µM | Nc1ncnc2c1ncn2[C@@H]1O[C@H](C[S+]([O-])CC[C@H](N)C(=O)O)[C@@H](O)[C@H]1O (stereo partly drawn) [2-Amino-4-[(2S,3S,4R,5R)-5-(6-amino-purin-9-yl)-3,4-dihydroxy-tetrahydro-furan-2-ylmethanesulfinyl]-butyric acid] |
| 30 µM |  | Nc1ncnc2c1ncn2[C@@H]1O[C@H](CSCCC(N)C(=O)O)[C@@H](O)[C@H]1O (stereo partly drawn) [2-Amino-4-[(2S,3S,4R,5R)-5-(6-amino-purin-9-yl)-3,4-dihydroxy-tetrahydro-furan-2-ylmethylsulfanyl]-butyric acid] |
